Reference: publication PMC12748989 (Nature Communications, 2025)

Columns and labels:
PBMC = conditions: 12.5 µM

Structure (SMILES): CC[C@H](C)[C@H](NC(=O)[C@H](CCCCN)NC(=O)[C@H](CCCCN)NC(=O)[C@H](C)NC(=O)[C@H](CC(C)C)NC(=O)[C@H](C)NC(=O)[C@H](C)NC(=O)[C@H](CC(C)C)NC(=O)[C@H](C)NC(=O)[C@H](CCCCN)NC(=O)[C@H](CC(C)C)NC(=O)[C@H](CC(N)=O)NC(=O)[C@H](C)N)C(=O)N[C@@H](CC(C)C)C(N)=O [A1]
- Average (percentage cell inhibition), Mastoparan PBMC (PBMC): 5.463%
- Average (percentage cell inhibition), Dmastoparan MDA-MB231 12.5uM (MDA-MB-231 cells): 30.2333%

Structure (SMILES): CC[C@H](C)[C@H](N)C(=O)N[C@@H](C)C(=O)N[C@@H](CC(C)C)C(=O)N[C@@H](CCCCN)C(=O)N[C@@H](C)C(=O)N[C@@H](CC(C)C)C(=O)N[C@@H](C)C(=O)N[C@@H](C)C(=O)N[C@@H](CC(C)C)C(=O)N[C@@H](C)C(=O)N[C@@H](CCCCN)C(=O)N[C@@H](CCCCN)C(=O)N[C@H](C(=O)N[C@@H](CC(C)C)C(N)=O)[C@@H](C)CC [A2]
- Average (percentage cell inhibition), Mastoparan PBMC (PBMC): 9.183%
- Average (percentage cell inhibition), Dmastoparan MDA-MB231 12.5uM (MDA-MB-231 cells): 38.1038%

Structure (SMILES): CC[C@H](C)[C@H](N)C(=O)N[C@@H](CC(N)=O)C(=O)N[C@@H](C)C(=O)N[C@@H](CCCCN)C(=O)N[C@@H](C)C(=O)N[C@@H](CC(C)C)C(=O)N[C@@H](C)C(=O)N[C@@H](C)C(=O)N[C@@H](CC(C)C)C(=O)N[C@@H](C)C(=O)N[C@@H](CCCCN)C(=O)N[C@@H](CCCCN)C(=O)N[C@H](C(=O)N[C@@H](CC(C)C)C(N)=O)[C@@H](C)CC [A3]
- Average (percentage cell inhibition), Mastoparan PBMC (PBMC): -7.622%
- Average (percentage cell inhibition), Dmastoparan MDA-MB231 12.5uM (MDA-MB-231 cells): 17.9778%

Structure (SMILES): CC[C@H](C)[C@H](N)C(=O)N[C@@H](CC(N)=O)C(=O)N[C@@H](CC(C)C)C(=O)N[C@@H](C)C(=O)N[C@@H](C)C(=O)N[C@@H](CC(C)C)C(=O)N[C@@H](C)C(=O)N[C@@H](C)C(=O)N[C@@H](CC(C)C)C(=O)N[C@@H](C)C(=O)N[C@@H](CCCCN)C(=O)N[C@@H](CCCCN)C(=O)N[C@H](C(=O)N[C@@H](CC(C)C)C(N)=O)[C@@H](C)CC [A4]
- Average (percentage cell inhibition), Mastoparan PBMC (PBMC): 11.5193%
- Average (percentage cell inhibition), Dmastoparan MDA-MB231 12.5uM (MDA-MB-231 cells): 36.5883%

Structure (SMILES): CC[C@H](C)[C@H](N)C(=O)N[C@@H](CC(N)=O)C(=O)N[C@@H](CC(C)C)C(=O)N[C@@H](CCCCN)C(=O)N[C@@H](C)C(=O)N[C@@H](C)C(=O)N[C@@H](C)C(=O)N[C@@H](C)C(=O)N[C@@H](CC(C)C)C(=O)N[C@@H](C)C(=O)N[C@@H](CCCCN)C(=O)N[C@@H](CCCCN)C(=O)N[C@H](C(=O)N[C@@H](CC(C)C)C(N)=O)[C@@H](C)CC [A6]
- Average (percentage cell inhibition), Mastoparan PBMC (PBMC): -1.6231%
- Average (percentage cell inhibition), Dmastoparan MDA-MB231 12.5uM (MDA-MB-231 cells): 16.1268%

Structure (SMILES): CC[C@H](C)[C@H](N)C(=O)N[C@@H](CC(N)=O)C(=O)N[C@@H](CC(C)C)C(=O)N[C@@H](CCCCN)C(=O)N[C@@H](C)C(=O)N[C@@H](CC(C)C)C(=O)N[C@@H](C)C(=O)N[C@@H](C)C(=O)N[C@@H](C)C(=O)N[C@@H](C)C(=O)N[C@@H](CCCCN)C(=O)N[C@@H](CCCCN)C(=O)N[C@H](C(=O)N[C@@H](CC(C)C)C(N)=O)[C@@H](C)CC [A9]
- Average (percentage cell inhibition), Mastoparan PBMC (PBMC): -3.746%
- Average (percentage cell inhibition), Dmastoparan MDA-MB231 12.5uM (MDA-MB-231 cells): 23.1985%

Structure (SMILES): CC[C@H](C)[C@H](N)C(=O)N[C@@H](CC(N)=O)C(=O)N[C@@H](CC(C)C)C(=O)N[C@@H](CCCCN)C(=O)N[C@@H](C)C(=O)N[C@@H](CC(C)C)C(=O)N[C@@H](C)C(=O)N[C@@H](C)C(=O)N[C@@H](CC(C)C)C(=O)N[C@@H](C)C(=O)N[C@@H](C)C(=O)N[C@@H](CCCCN)C(=O)N[C@H](C(=O)N[C@@H](CC(C)C)C(N)=O)[C@@H](C)CC [A11]
- Average (percentage cell inhibition), Mastoparan PBMC (PBMC): 11.43%
- Average (percentage cell inhibition), Dmastoparan MDA-MB231 12.5uM (MDA-MB-231 cells): 45.8441%

Structure (SMILES): CC[C@H](C)[C@H](N)C(=O)N[C@@H](CC(N)=O)C(=O)N[C@@H](CC(C)C)C(=O)N[C@@H](CCCCN)C(=O)N[C@@H](C)C(=O)N[C@@H](CC(C)C)C(=O)N[C@@H](C)C(=O)N[C@@H](C)C(=O)N[C@@H](CC(C)C)C(=O)N[C@@H](C)C(=O)N[C@@H](CCCCN)C(=O)N[C@@H](C)C(=O)N[C@H](C(=O)N[C@@H](CC(C)C)C(N)=O)[C@@H](C)CC [A12]
- Average (percentage cell inhibition), Mastoparan PBMC (PBMC): 17.0691%
- Average (percentage cell inhibition), Dmastoparan MDA-MB231 12.5uM (MDA-MB-231 cells): 42.9356%

Structure (SMILES): CC[C@H](C)[C@H](N)C(=O)N[C@@H](CC(N)=O)C(=O)N[C@@H](CC(C)C)C(=O)N[C@@H](CCCCN)C(=O)N[C@@H](C)C(=O)N[C@@H](CC(C)C)C(=O)N[C@@H](C)C(=O)N[C@@H](C)C(=O)N[C@@H](CC(C)C)C(=O)N[C@@H](C)C(=O)N[C@@H](CCCCN)C(=O)N[C@@H](CCCCN)C(=O)N[C@@H](C)C(=O)N[C@@H](CC(C)C)C(N)=O [A13]
- Average (percentage cell inhibition), Mastoparan PBMC (PBMC): 5.573%
- Average (percentage cell inhibition), Dmastoparan MDA-MB231 12.5uM (MDA-MB-231 cells): 24.196%

Structure (SMILES): CC[C@H](C)[C@H](N)C(=O)N[C@@H](CC(N)=O)C(=O)N[C@@H](CC(C)C)C(=O)N[C@@H](CCCCN)C(=O)N[C@@H](C)C(=O)N[C@@H](CC(C)C)C(=O)N[C@@H](C)C(=O)N[C@@H](C)C(=O)N[C@@H](CC(C)C)C(=O)N[C@@H](C)C(=O)N[C@@H](CCCCN)C(=O)N[C@@H](CCCCN)C(=O)N[C@H](C(=O)N[C@@H](C)C(N)=O)[C@@H](C)CC [A14]
- Average (percentage cell inhibition), Mastoparan PBMC (PBMC): 6.423%
- Average (percentage cell inhibition), Dmastoparan MDA-MB231 12.5uM (MDA-MB-231 cells): 12.3553%

Structure (SMILES): CC[C@H](C)[C@H](NC(=O)[C@H](CCCCN)NC(=O)[C@H](CCCCN)NC(=O)[C@H](C)NC(=O)[C@H](CC(C)C)NC(=O)[C@H](C)NC(=O)[C@H](C)NC(=O)[C@H](CC(C)C)NC(=O)[C@H](C)NC(=O)[C@H](CCCCN)NC(=O)[C@H](CC(C)C)NC(=O)[C@H](CC(N)=O)NC(=O)[C@@H](N)CCC(=O)O)C(=O)N[C@@H](CC(C)C)C(N)=O [E1]
- Average (percentage cell inhibition), Mastoparan PBMC (PBMC): 8.369%
- Average (percentage cell inhibition), Dmastoparan MDA-MB231 12.5uM (MDA-MB-231 cells): 25.5598%

Structure (SMILES): CC[C@H](C)[C@H](N)C(=O)N[C@@H](CCC(=O)O)C(=O)N[C@@H](CC(C)C)C(=O)N[C@@H](CCCCN)C(=O)N[C@@H](C)C(=O)N[C@@H](CC(C)C)C(=O)N[C@@H](C)C(=O)N[C@@H](C)C(=O)N[C@@H](CC(C)C)C(=O)N[C@@H](C)C(=O)N[C@@H](CCCCN)C(=O)N[C@@H](CCCCN)C(=O)N[C@H](C(=O)N[C@@H](CC(C)C)C(N)=O)[C@@H](C)CC [E2]
- Average (percentage cell inhibition), Mastoparan PBMC (PBMC): 11.8092%
- Average (percentage cell inhibition), Dmastoparan MDA-MB231 12.5uM (MDA-MB-231 cells): 39.1083%

Structure (SMILES): CC[C@H](C)[C@H](N)C(=O)N[C@@H](CC(N)=O)C(=O)N[C@@H](CCC(=O)O)C(=O)N[C@@H](CCCCN)C(=O)N[C@@H](C)C(=O)N[C@@H](CC(C)C)C(=O)N[C@@H](C)C(=O)N[C@@H](C)C(=O)N[C@@H](CC(C)C)C(=O)N[C@@H](C)C(=O)N[C@@H](CCCCN)C(=O)N[C@@H](CCCCN)C(=O)N[C@H](C(=O)N[C@@H](CC(C)C)C(N)=O)[C@@H](C)CC [E3]
- Average (percentage cell inhibition), Mastoparan PBMC (PBMC): 5.899%
- Average (percentage cell inhibition), Dmastoparan MDA-MB231 12.5uM (MDA-MB-231 cells): 14.5974%

Structure (SMILES): CC[C@H](C)[C@H](N)C(=O)N[C@@H](CC(N)=O)C(=O)N[C@@H](CC(C)C)C(=O)N[C@@H](CCC(=O)O)C(=O)N[C@@H](C)C(=O)N[C@@H](CC(C)C)C(=O)N[C@@H](C)C(=O)N[C@@H](C)C(=O)N[C@@H](CC(C)C)C(=O)N[C@@H](C)C(=O)N[C@@H](CCCCN)C(=O)N[C@@H](CCCCN)C(=O)N[C@H](C(=O)N[C@@H](CC(C)C)C(N)=O)[C@@H](C)CC [E4]
- Average (percentage cell inhibition), Mastoparan PBMC (PBMC): 5.1636%
- Average (percentage cell inhibition), Dmastoparan MDA-MB231 12.5uM (MDA-MB-231 cells): 27.9326%

Structure (SMILES): CC[C@H](C)[C@H](N)C(=O)N[C@@H](CC(N)=O)C(=O)N[C@@H](CC(C)C)C(=O)N[C@@H](CCCCN)C(=O)N[C@@H](CCC(=O)O)C(=O)N[C@@H](CC(C)C)C(=O)N[C@@H](C)C(=O)N[C@@H](C)C(=O)N[C@@H](CC(C)C)C(=O)N[C@@H](C)C(=O)N[C@@H](CCCCN)C(=O)N[C@@H](CCCCN)C(=O)N[C@H](C(=O)N[C@@H](CC(C)C)C(N)=O)[C@@H](C)CC [E5]
- Average (percentage cell inhibition), Mastoparan PBMC (PBMC): 3.135%
- Average (percentage cell inhibition), Dmastoparan MDA-MB231 12.5uM (MDA-MB-231 cells): 15.4865%

Structure (SMILES): CC[C@H](C)[C@H](N)C(=O)N[C@@H](CC(N)=O)C(=O)N[C@@H](CC(C)C)C(=O)N[C@@H](CCCCN)C(=O)N[C@@H](C)C(=O)N[C@@H](CCC(=O)O)C(=O)N[C@@H](C)C(=O)N[C@@H](C)C(=O)N[C@@H](CC(C)C)C(=O)N[C@@H](C)C(=O)N[C@@H](CCCCN)C(=O)N[C@@H](CCCCN)C(=O)N[C@H](C(=O)N[C@@H](CC(C)C)C(N)=O)[C@@H](C)CC [E6]
- Average (percentage cell inhibition), Mastoparan PBMC (PBMC): 3.211%
- Average (percentage cell inhibition), Dmastoparan MDA-MB231 12.5uM (MDA-MB-231 cells): 39.2363%

Structure (SMILES): CC[C@H](C)[C@H](N)C(=O)N[C@@H](CC(N)=O)C(=O)N[C@@H](CC(C)C)C(=O)N[C@@H](CCCCN)C(=O)N[C@@H](C)C(=O)N[C@@H](CC(C)C)C(=O)N[C@@H](CCC(=O)O)C(=O)N[C@@H](C)C(=O)N[C@@H](CC(C)C)C(=O)N[C@@H](C)C(=O)N[C@@H](CCCCN)C(=O)N[C@@H](CCCCN)C(=O)N[C@H](C(=O)N[C@@H](CC(C)C)C(N)=O)[C@@H](C)CC [E7]
- Average (percentage cell inhibition), Mastoparan PBMC (PBMC): 6.221%
- Average (percentage cell inhibition), Dmastoparan MDA-MB231 12.5uM (MDA-MB-231 cells): 27.5958%

Structure (SMILES): CC[C@H](C)[C@H](N)C(=O)N[C@@H](CC(N)=O)C(=O)N[C@@H](CC(C)C)C(=O)N[C@@H](CCCCN)C(=O)N[C@@H](C)C(=O)N[C@@H](CC(C)C)C(=O)N[C@@H](C)C(=O)N[C@@H](CCC(=O)O)C(=O)N[C@@H](CC(C)C)C(=O)N[C@@H](C)C(=O)N[C@@H](CCCCN)C(=O)N[C@@H](CCCCN)C(=O)N[C@H](C(=O)N[C@@H](CC(C)C)C(N)=O)[C@@H](C)CC [E8]
- Average (percentage cell inhibition), Mastoparan PBMC (PBMC): 13.1597%
- Average (percentage cell inhibition), Dmastoparan MDA-MB231 12.5uM (MDA-MB-231 cells): 39.5903%

Structure (SMILES): CC[C@H](C)[C@H](N)C(=O)N[C@@H](CC(N)=O)C(=O)N[C@@H](CC(C)C)C(=O)N[C@@H](CCCCN)C(=O)N[C@@H](C)C(=O)N[C@@H](CC(C)C)C(=O)N[C@@H](C)C(=O)N[C@@H](C)C(=O)N[C@@H](CCC(=O)O)C(=O)N[C@@H](C)C(=O)N[C@@H](CCCCN)C(=O)N[C@@H](CCCCN)C(=O)N[C@H](C(=O)N[C@@H](CC(C)C)C(N)=O)[C@@H](C)CC [E9]
- Average (percentage cell inhibition), Mastoparan PBMC (PBMC): 0.4268%
- Average (percentage cell inhibition), Dmastoparan MDA-MB231 12.5uM (MDA-MB-231 cells): 4.314%
